Drawing on patent US8138183B2, “Morpholino pyrimidine derivatives used in diseases linked to mTOR kinase and/or PI3K” (AstraZeneca AB, priority 2007, dated 2012), this text covers IC50 for one molecule.

For assay [1], the system named is phosphorylation of Serine 473 in Akt. As to the kind of experiment: In Vitro phospho-Ser473 Akt Assay, Test (c). It is filed as cell-based. The conditions noted are these: MDA-MB-468 human breast adenocarcinoma cells, measured on two occasions, read-out: IC50 versus Serine 473 in Akt. Here is the method: (c) In Vitro phospho-Ser473 Akt Assay
This assay determines the ability of test compounds to inhibit phosphorylation of Serine 473 in Akt as assessed using Acumen Explorer technology (Acumen Bioscience Limited), a plate reader that can be used to rapidly quantitate features of images generated by laser-scanning.
A MDA-MB-468 human breast adenocarcinoma cell line (LGC Promochem, Teddington, Middlesex, UK, Catalogue No. HTB-132) was routinely maintained at 37° C. with 5% CO2 up to a confluency of 70-90% in DMEM containing 10% heat-inactivated FCS and 1% L-glutamine.
For the assay, the cells were detached from the culture flask using ‘Accutase’ (Innovative Cell Technologies Inc., San Diego, Calif., USA; Catalogue No. AT104) using standard tissue culture methods and resuspended in media to give 1.7×10^5 cells per mL. […]
All subsequent aspiration and wash steps were carried out using a Tecan 96 well plate washer (aspiration speed 10 mm/sec). […] An aliquot of PBS (50 μl) was added to each well and the plates were sealed with black plate sealers and the fluorescence signal was detected and analysed.
Fluorescence dose response data obtained with each compound were analysed and the degree of inhibition of Serine 473 in Akt was expressed as an IC50 value.

The target in assay [2] is recombinant mTOR (Homo sapiens, UniProt P42345). As to the kind of experiment: In Vitro mTOR Kinase Assay (Echo), Test (a)(ii) (AlphaScreen). The class given is biochemical. The note with it: Echo acoustic dispensing. Here is the method: (a)(ii) In Vitro mTOR Kinase Assay (Echo)
recombinant mTOR, sequence (P42345 1362-2549): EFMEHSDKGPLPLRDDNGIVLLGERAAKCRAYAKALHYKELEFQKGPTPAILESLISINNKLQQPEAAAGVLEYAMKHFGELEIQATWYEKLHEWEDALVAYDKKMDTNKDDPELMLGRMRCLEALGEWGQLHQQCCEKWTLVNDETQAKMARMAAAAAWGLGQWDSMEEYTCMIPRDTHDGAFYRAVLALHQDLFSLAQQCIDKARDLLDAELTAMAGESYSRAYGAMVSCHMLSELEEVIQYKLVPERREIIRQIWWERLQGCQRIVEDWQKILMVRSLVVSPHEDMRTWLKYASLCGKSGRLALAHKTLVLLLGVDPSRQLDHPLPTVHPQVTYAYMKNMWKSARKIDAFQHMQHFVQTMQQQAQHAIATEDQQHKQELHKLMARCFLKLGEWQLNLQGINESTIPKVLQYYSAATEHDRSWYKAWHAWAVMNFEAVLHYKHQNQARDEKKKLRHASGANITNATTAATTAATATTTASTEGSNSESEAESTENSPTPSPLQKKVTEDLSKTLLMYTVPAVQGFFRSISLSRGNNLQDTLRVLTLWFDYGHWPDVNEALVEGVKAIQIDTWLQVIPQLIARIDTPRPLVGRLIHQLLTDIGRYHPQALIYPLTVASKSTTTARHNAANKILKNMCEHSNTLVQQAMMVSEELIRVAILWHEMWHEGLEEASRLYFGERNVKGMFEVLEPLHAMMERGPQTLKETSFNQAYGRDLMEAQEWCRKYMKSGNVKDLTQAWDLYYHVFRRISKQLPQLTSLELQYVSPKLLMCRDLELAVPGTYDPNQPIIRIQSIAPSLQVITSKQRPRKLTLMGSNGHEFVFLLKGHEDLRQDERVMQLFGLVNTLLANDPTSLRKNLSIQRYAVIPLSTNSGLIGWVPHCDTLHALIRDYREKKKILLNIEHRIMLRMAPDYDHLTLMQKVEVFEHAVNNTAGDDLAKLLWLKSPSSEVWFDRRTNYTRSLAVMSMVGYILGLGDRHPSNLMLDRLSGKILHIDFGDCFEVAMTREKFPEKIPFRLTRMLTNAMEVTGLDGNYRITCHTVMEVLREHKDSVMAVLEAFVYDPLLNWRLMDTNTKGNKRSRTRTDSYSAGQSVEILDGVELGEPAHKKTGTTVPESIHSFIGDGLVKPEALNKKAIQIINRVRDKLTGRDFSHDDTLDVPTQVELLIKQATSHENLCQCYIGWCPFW
The assay used AlphaScreen technology (Gray et al., Analytical Biochemistry, 2003, 313: 234-245) to determine the ability of test compounds to inhibit phosphorylation by recombinant mTOR.
The HEK293 FLAG-tagged mTOR (1362-2549) stable cell line was routinely maintained at 37° C. with 5% CO2 up to a confluency of 70-90% in Dulbecco's modified Eagle's growth medium (DMEM; Invitrogen Limited, Paisley, UK Catalogue No. 41966-029) containing 10% heat-inactivated foetal calf serum (FCS; Sigma, Poole, Dorset, UK, Catalogue No. F0392), 1% L-glutamine (Gibco, Catalogue No. 25030-024) and 2 mg/ml Geneticin (G418 sulfate; Invitrogen Limited, UK Catalogue No. 10131-027). Following expression in the mammalian HEK293 cell line, expressed protein was purified using the FLAG epitope tag using standard purification techniques.
Aliquots ([…]) of each compound dilution were acoustically […] using a Labcyte Echo 550 into a well of a Greiner 384-well low volume (LV) white polystyrene plate (Greiner Bio-one). A […] mixture of recombinant purified mTOR enzyme, 1 μM biotinylated peptide substrate (Biotin-Ahx-[…]NH2; Bachem UK Ltd), ATP (20 μM) and a buffer solution [comprising Tris-HCl pH7.4 buffer (50 mM), EGTA (0.1 mM), bovine serum albumin (0.5 mg/mL), DTT (1.25 mM) and manganese chloride (10 mM)] was incubated at room temperature for […].
These assay solutions were incubated for 2 hours at room temperature.
Each reaction was stopped by the addition of […] of a mixture of EDTA (50 mM), bovine serum albumin (BSA; 0.5 mg/mL) and Tris-HCl pH7.4 buffer (50 mM) containing
p70 S6 Kinase (T389) 1A5 Monoclonal Antibody (Cell Signalling Technology, Catalogue No. 9206B) and AlphaScreen Streptavidin donor and Protein A acceptor beads (200 ng; Perkin Elmer, Catalogue No. 6760002B and 6760137R respectively) were added and the assay plates were left overnight at room temperature in the dark. The resultant signals arising from laser light excitation at 680 nm were read using a Packard Envision instrument.
The phosphorylated biotinylated peptide that is associated with AlphaScreen Streptavidin donor beads forms a complex with the p70 S6 Kinase (T389) 1A5 Monoclonal Antibody that is associated with Alphascreen Protein A acceptor beads. Upon laser light excitation at 680 nm, the donor bead : acceptor bead complex produces a signal that can be measured. Accordingly, the presence of mTOR kinase activity results in an assay signal. In the presence of an mTOR kinase inhibitor, signal strength is reduced. mTOR enzyme inhibition for a given test compound was expressed as an IC50 value.
(In general: Bead proximity is the source of the signal in Alpha formats.)

Where two headings read alike, the source gives them in different places.

Take `C[C@H]1COCCN1c1cc(CS(C)(=O)=O)nc(-c2ccc(NC(=S)Nc3ccccc3)cc2)n1` [Example 1b, 1-[4-[4-[(3S)-3-methylmorpholin-4-yl]-6-(methylsulfonylmethyl)pyrimidin-2-yl]phenyl]-3-phenyl-thiourea]: the IC50 – broadly, the concentration that inhibits the measured activity by half – worked out at 1930 nM in assay [1] (Homo sapiens, MDA-MB-468, Test (c)); 1740 nM in assay [1] (Test (c)); 81.6 nM in assay [2].
